Results: ChEMBL document CHEMBL1909637, “Structure-activity relationship and enzyme kinetic studies on 4-aryl-1H-1,2,3-triazoles as indoleamine 2,3-dioxygenase (IDO) inhibitors” (Eur J Med Chem, 2011)
Activity calls are given as the source filed them. The rule behind the calls is not given here.

Assays:
[1] = molecular target: T1, Indoleamine 2,3-dioxygenase 1 (Homo sapiens, UniProt P14902); assay: Inhibition of human recombinant indoleamine-2,3-dioxygenase expressed in Escherichia coli BL21 using L-tryptophan as substrate after 30 mins by microplate reader analysis
Target sequence in this assay (P14902 whole entry): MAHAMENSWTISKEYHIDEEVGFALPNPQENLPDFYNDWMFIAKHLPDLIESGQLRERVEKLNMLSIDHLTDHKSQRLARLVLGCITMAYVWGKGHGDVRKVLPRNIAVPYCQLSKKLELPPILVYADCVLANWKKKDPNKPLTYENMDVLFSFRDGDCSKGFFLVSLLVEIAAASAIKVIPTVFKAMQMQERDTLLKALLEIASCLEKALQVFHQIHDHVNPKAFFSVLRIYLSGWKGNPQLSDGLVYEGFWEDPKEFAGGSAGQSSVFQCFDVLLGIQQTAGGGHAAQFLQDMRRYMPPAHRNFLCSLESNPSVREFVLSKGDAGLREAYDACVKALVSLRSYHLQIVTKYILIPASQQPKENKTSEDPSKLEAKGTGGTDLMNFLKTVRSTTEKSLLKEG

[2] = molecular target: T1, Indoleamine 2,3-dioxygenase 1; assay: Uncompetitive inhibition of human recombinant indoleamine-2,3-dioxygenase expressed in Escherichia coli BL21 using L-tryptophan as substrate by Dixon plot analysis
Target sequence in this assay (P14902 whole entry): as above

[3] = molecular target: T1, Indoleamine 2,3-dioxygenase 1; assay: Inhibition of indoleamine-2,3-dioxygenase in human HEK293 cells assessed as N-formylkynurenine level after 5 hrs by spectrophotometric analysis; assay type: cell-based
Target sequence in this assay (P14902 whole entry): as above

[4] = molecular target: T1, Indoleamine 2,3-dioxygenase 1; assay: Reversal inhibition of human recombinant indoleamine-2,3-dioxygenase expressed in Escherichia coli BL21 using L-tryptophan as substrate by Dixon plot analysis
Target sequence in this assay (P14902 whole entry, looked up): as the sequence (P14902 whole entry) above

T-cell [5] = assay: Induction of BALB/c mouse LLC-stimulated T cell proliferation after 4 days by WST-1 method; assay type: functional, cell-based
T-cell [6] = assay: Ratio of 1-methyl tryptophan to compound for induction of BALB/c mouse LLC-stimulated T cell proliferation; assay type: functional
[7] = molecular target: T1, Indoleamine 2,3-dioxygenase 1; assay: Ratio of IC50 for human recombinant indoleamine-2,3-dioxygenase expressed in Escherichia coli BL21 to IC50 for indoleamine-2,3-dioxygenase in human HEK293 cells
Target sequence in this assay (P14902 whole entry, looked up): as the sequence (P14902 whole entry) above

In the case of `Brc1ccccc1-c1c[nH]nn1`, the IC50 ([1]; read-out: IC50) is reported as 148 µM, the Ki [2] is reported as 18 µM and the IC50 [3] is reported as 31.6 µM.

With `Brc1nn[nH]c1-c1ccccc1` the IC50 [1] was “Not Active”.

`Clc1ccc(-c2c[nH]nn2)cc1` was tested, and the IC50 ([1]; read-out: IC50) was 817 µM.

In the case of `c1ccc2[nH]nnc2c1` [BENZOTRIAZOLE], the IC50 ([1]; read-out: IC50) is reported as 2570 µM.

For `Clc1ccccc1-c1cnn[nH]1`, the inhibition [4] was “Active”, the Activity (T-cell [5]) was “Dose-dependent effect” and the Ratio (T-cell [6]) was 2. For the same compound, the Ratio IC50 [7] was 3.

`c1cncc(-c2c[nH]nn2)c1` was tested, and the IC50 ([1]; read-out: IC50) was 708 µM.

Work on `Cc1ccc(-c2[nH]nnc2Br)cc1` yielded an IC50 ([1]; read-out: IC50) of 1030 µM.

With `Ic1nn[nH]c1-c1ccccc1` the IC50 ([1]; read-out: IC50) was 1370 µM.

For `COc1ccc(-c2c[nH]nn2)cc1`, the IC50 ([1]; read-out: IC50) was 6000 µM.

For `On1nnc2ccccc21`, the IC50 [1] was “Not Active”.

For `c1ccc(-c2cnn[nH]2)cc1`, the inhibition [4] was “Active” and the Activity (T-cell [5]) was “Dose-dependent effect”.

With `Clc1nn[nH]c1-c1ccccc1` the IC50 [1] was “Not Active”.

With `Brc1ccc(-c2nn[nH]n2)cc1` the IC50 [1] was “Not Active”.

For `Brc1ccccc1-c1cnn[nH]1`, the inhibition [4] was “Active”, the Activity (T-cell [5]) was “Dose-dependent effect” and the Ratio IC50 [7] was 3.

In the case of `Brc1ccc(-c2c[nH]nn2)cc1`, the IC50 ([1]; read-out: IC50) is reported as 1260 µM.

In the case of `O=[N+]([O-])c1ccc(-c2nn[nH]c2[N+](=O)[O-])cc1`, the IC50 ([1]; read-out: IC50) is reported as 533 µM.

Work on `COc1ccccc1-c1c[nH]nn1` yielded an IC50 ([1]; read-out: IC50) of 1030 µM.

In the case of `CCOC(=O)c1cn(-c2ccc(Cl)cc2)nn1`, the IC50 ([1]; read-out: IC50) is reported as 2000 µM.

For `Clc1ccccc1-c1c[nH]nn1`, the IC50 ([1]; read-out: IC50) was 86 µM, the Ki [2] was 14.5 µM and the IC50 [3] was 19.3 µM.

With `COC(=O)c1ccc(-c2cnn[nH]2)cc1` the IC50 [1] was “Not Active”.

For `Cc1ccc(-c2c[nH]nn2)cc1`, the IC50 [1] was “Not Active”.

`Fc1ccc(-c2c[nH]nn2)cc1` gave an IC50 ([1]; read-out: IC50) of 580 µM.
